In publication PMC2885425, “Complete Phenotypic Recovery of an Alzheimer's Disease Model by a Quinone-Tryptophan Hybrid Aggregation Inhibitor” (PLoS ONE, 2010) one finds Kd and stoichiometry N data, which are given here for two compounds.

The target in assay [1] is T1, β-amyloid polypeptide (Aβ1–42) (Homo sapiens, UniProt P05067).
T1 construct: gene APP; Aβ1–42 (synthetic, early oligomeric assemblies); NMR with Aβ12–28
The assay can be described thus: fluorescence anisotropy titration (Aβ[…] early assemblies); supported by 1H-NMR shift perturbation with Aβ[…] and ThT fibril inhibition (IC50 […]). In kind it is binding. For orientation: In fluorescence polarisation assays a small probe gives low polarisation when free and higher when bound to something large.

For assay [2], the target named is Arctic (Arc) (E22G) mutant form of Aβ1–42 (human). The assay can be described thus: immunoprecipitation with antibody 6E10 and western blot of SDS-stable oligomers; head extracts (PBS, protease inhibitor, 1% SDS) of 6 day old Aβarc1-42-expressing flies on regular food; samples boiled. In general terms: In western blotting, separated proteins are transferred to a membrane and probed.

T1 sequence (P05067 672-713): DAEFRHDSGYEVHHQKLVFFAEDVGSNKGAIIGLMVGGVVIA

In general, Kd refers to a measure of binding affinity in units of concentration. In the case of `O=C1C=C(N[C@@H](Cc2c[nH]c3ccccc23)C(=O)O)C(=O)c2ccccc21` [IL, 1,4-naphthoquinon-2-yl-L-tryptophan], the Kd in assay [1] was approximately 90 nM.

A word on the stoichiometry N: it is the number of molecules, sites or subunits per partner or assembly. In assay [2], “Arctic (Arc) (E22G) mutant form of Aβ1–42 (peptide)” gave a stoichiometry N of 4.
